One may read the GI50 as the concentration giving 50% growth inhibition. As usually defined, the IC50 is the concentration that gives 50% inhibition.

Read-outs that look alike come from different tables or passages of the source.

From patent publication US10065990B2, “Cyclic peptide compound, and preparation method, pharmaceutical composition and use thereof” (HANGZHOU GUANYU BIO-MEDICAL CO., LTD, priority 2013, dated 2018) come the findings set out here.

For assay [1], the system named is K562 (human leukemia cells). As to the kind of experiment: MTT cancer cell growth inhibition. Format: cell-based. Conditions: MTT, 72 hours incubation, K562 cells, read-out: GI50 K562. In outline:
(§1)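 Growth inhibition is scored with MTT after three days of compound treatment spanning 10^−5–10^−10 M. Cells are maintained in DMEM or 1640 medium containing 10% FBS and plated at 1500 per well the previous night; absorbance at 570 nm gives viability, from which GI50 is calculated.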

Assay [2] concerns HCC827 (human non-small cell lung cancer cells). As to the kind of experiment: MTT cancer cell growth inhibition. Format: cell-based. Conditions: MTT, 72 hours incubation, HCC827 cells, read-out: GI50 HCC827. In outline:
as §1

The test system of assay [3] is BGC-823 (human gastric cancer cells). As to the kind of experiment: MTT cancer cell growth inhibition. Format: cell-based. Particulars: MTT, 72 hours incubation, read-out: GI50 BG. In outline:
as §1

In assay [4] the test system is Bel-7402 (human hepatoma cells). Kind of assay: MTT cancer cell growth inhibition. Format: cell-based. Conditions: MTT, 72 hours incubation, Bel-7402 cells, read-out: GI50 Bel-7402. In short, it runs like this: as §1
In assay [5] the test system is Hela (human cervical cancer cells). Kind of assay: MTT cancer cell growth inhibition. Particulars: MTT, 72 hours incubation, read-out: GI50 Hela. Format: cell-based. In short, it runs like this:
as §1

In assay [6] the test system is U937 (human leukemia cells). Kind of assay: MTT cancer cell growth inhibition. Format: cell-based. Particulars: MTT, 72 hours incubation, read-out: GI50 U93. In short, it runs like this:
as §1

In assay [7] the test system is H1975 (non-small cell lung adenocarcinoma). As to the kind of experiment: MTT cancer cell growth inhibition. Format: cell-based. Particulars: MTT, 72 hours incubation, H1975 cells, read-out: GI50 H1975. In outline:
as §1

In assay [8] the test system is N-87 (human gastric cancer cells). Kind of assay: MTT cancer cell growth inhibition. Format: cell-based. Particulars: MTT, 72 hours incubation, N-87 cells, read-out: GI50 N-87. In outline:
as §1

Assay [9] has as its system DU145 (human prostate cancer cells). As to the kind of experiment: MTT cancer cell growth inhibition. Format: cell-based. Particulars: MTT, 72 hours incubation, read-out: GI50 Du1. In outline: as §1
The test system of assay [10] is HT1080 (human fibrosarcoma cells). Kind of assay: MTT cancer cell growth inhibition. Format: cell-based. Conditions: MTT, 72 hours incubation, read-out: GI50 HT1. In outline: as §1
Assay [11] concerns KBM-5 (human chronic myelogenous leukemia). As to the kind of experiment: MTT cancer cell growth inhibition. Format: cell-based. Particulars: MTT, 72 hours incubation, KBM-5 cells, read-out: GI50 KBM-5. In short, it runs like this: as §1
Assay [12] has as its target T1, HDAC8 (Homo sapiens, UniProt Q9BY41).
T1 sequence (Q9BY41 1-377): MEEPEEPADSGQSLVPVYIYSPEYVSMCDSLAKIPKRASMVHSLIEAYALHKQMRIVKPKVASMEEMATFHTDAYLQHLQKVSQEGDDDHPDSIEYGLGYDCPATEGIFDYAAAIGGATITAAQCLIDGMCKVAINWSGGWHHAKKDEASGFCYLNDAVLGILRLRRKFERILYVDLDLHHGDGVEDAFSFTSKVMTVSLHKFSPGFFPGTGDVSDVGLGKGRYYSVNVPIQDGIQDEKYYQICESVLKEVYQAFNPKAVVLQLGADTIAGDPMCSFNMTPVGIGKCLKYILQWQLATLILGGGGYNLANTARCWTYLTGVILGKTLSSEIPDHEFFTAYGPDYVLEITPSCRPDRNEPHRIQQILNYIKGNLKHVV
Kind of assay: HDAC biochemical activity measurement (fluorescent substrate deacetylation). Conditions: 37° C. 30 minutes.

Assay [13] concerns the target HDAC3 (Homo sapiens, UniProt O15379). The assay is described as above.
Method: The chemical activity of the compound is determined according to the degree of deacetylation inhibition of the HDAC enzyme. This experiment measured the degree of deacetylation related to tumor proliferation and metastasis of HDAC1, HDAC2, HDAC3, HDAC8, HDAC11 five subtypes HDAC enzymes. After the substrate containing an acetylated lysine side chain and HDAC enzyme are labeled with a fluorescent label, the fluorescent substrate is de acetyl. The fluorescent labeled substrate is cleaved by the enzyme, and the fluorescent substance is released, which generates 460 nm emission light under the excitation of 360 nm light.
HDAC substrate was diluted with reaction buffer to 200M (reaction concentration of 20M), the HDAC enzyme was diluted to the appropriate concentration, then added different concentrations of the test compounds and acted at 37° C. 30 minutes, and then added the same volume of 2-times concentration substrate developing solution (developer), incubated at room temperature for 15 minutes.
Where [14] appears, read: read-out: IC50 HDAC3, HDAC3, 37° C. 30 minutes.
Setting [15] is: Homo sapiens, BGC-823, 72 h, BGC-823 cells.
[16] abbreviates: Homo sapiens, HeLa, 72 h, Hela cells.
Setting [17] is: Homo sapiens, U-937, 72 h, U937 cells.
[18] abbreviates: Homo sapiens, DU-145, 72 h, DU145 cells.
Where [19] appears, read: Homo sapiens, HT-1080, 72 h, HT1080 cells.

HDAC3, sequence (O15379 whole entry, species assumed): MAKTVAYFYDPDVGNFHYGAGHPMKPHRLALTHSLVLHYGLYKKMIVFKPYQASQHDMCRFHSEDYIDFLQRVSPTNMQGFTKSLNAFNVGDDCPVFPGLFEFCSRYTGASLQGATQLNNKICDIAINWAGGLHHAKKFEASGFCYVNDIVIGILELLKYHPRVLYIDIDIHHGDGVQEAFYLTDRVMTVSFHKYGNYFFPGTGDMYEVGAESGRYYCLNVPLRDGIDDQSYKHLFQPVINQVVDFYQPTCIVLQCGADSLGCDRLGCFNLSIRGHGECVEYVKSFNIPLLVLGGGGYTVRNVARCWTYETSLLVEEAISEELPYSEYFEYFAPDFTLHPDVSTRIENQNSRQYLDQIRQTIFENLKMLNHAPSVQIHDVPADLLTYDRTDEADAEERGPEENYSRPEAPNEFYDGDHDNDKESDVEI
HDAC3, sequence (Q9Y618 395-489 partner limits assumed, species assumed): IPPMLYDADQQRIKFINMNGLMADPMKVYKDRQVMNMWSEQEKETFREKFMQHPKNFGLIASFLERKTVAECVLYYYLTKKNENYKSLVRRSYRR

With `C/C=C1\NC(=O)c2nc(F)cc(n2)CNC(=O)C[C@@H](/C=C/CCSC(C)=O)OC(=O)[C@H](C(C)C)NC1=O` [Compound 98], the concentration for 50% growth inhibition (GI50) in assay [1] came out at 37 nM; in assay [2], 35 nM; in assay [3] it was 50 nM; in assay [4] it was 43 nM; in assay [5], 50 nM; in assay [6] it was 30 nM. Further, the GI50 came out at 81 nM in assay [7]; 21 nM in assay [8]; 40 nM in assay [9]; 80 nM in [10]; 29 nM in [11]. The IC50 in [12] stood at 61 nM; in [13] (setting [14]), 62 nM.
As to `C/C=C1\NC(=O)c2nc(ccc2SC)CNC(=O)C[C@@H](/C=C/CCSC(=O)CCCCCCC)OC(=O)[C@H](CC)NC1=O` [Compound 171], the GI50 in assay [1] (Homo sapiens, K562, 72 h) was found to be 46 nM; in assay [2] (Homo sapiens, HCC827, 72 h), 23 nM; in [3] (setting [15]), 70 nM; in [4] (Homo sapiens, Bel-7402, 72 h), 38 nM; in assay [5] (setting [16]) it was 50 nM; in assay [6] (setting [17]) it was 20 nM. Also, the GI50 in assay [7] (Homo sapiens, NCI-H1975, 72 h) was 71 nM; in [8] (Homo sapiens, 72 h) it was 39 nM; in assay [9] (setting [18]), 10 nM; in assay [10] (setting [19]) it was 40 nM; in [11] (Homo sapiens, KBM5, 72 h) it was 33 nM. For the same compound, the IC50 in assay [12] worked out at 35 nM; in [13], 18 nM.
As to `C/C=C1\NC(=O)c2nc(ccc2SC)CNC(=O)C[C@@H](/C=C/CCSC(=O)CCCCCCC)OC(=O)[C@H](C(C)C)NC1=O` [Compound 147], the GI50 came out at 37 nM in assay [1] (Homo sapiens, K562, 72 h); 28 nM in [2] (Homo sapiens, HCC827, 72 h); 50 nM in [3] (setting [15]); 28 nM in assay [4] (Homo sapiens, Bel-7402, 72 h); 50 nM in assay [5] (setting [16]); 30 nM in assay [6] (setting [17]). Besides, the GI50 in assay [7] (Homo sapiens, NCI-H1975, 72 h) was found to be 26 nM; in assay [8] (Homo sapiens, 72 h) it was 83 nM; in assay [9] (setting [18]) it was 40 nM; in assay [10] (setting [19]), 80 nM; in [11] (Homo sapiens, KBM5, 72 h), 23 nM. The IC50 in assay [12] came to 28 nM; in [13], 51 nM.
For the compound `C/C=C1\NC(=O)c2cc(F)cc(n2)CNC(=O)C[C@@H](/C=C/CCSC(=O)CCCCCCC)OC(=O)[C@H](C)NC1=O` [Compound 61], the GI50 turned out to be 34 nM in assay [1] (Homo sapiens, K562, 72 h); 67 nM in [2] (Homo sapiens, HCC827, 72 h); 70 nM in [3] (Homo sapiens, BGC-823, 72 h); 67 nM in assay [4] (Homo sapiens, Bel-7402, 72 h); 80 nM in [5] (Homo sapiens, HeLa, 72 h); 50 nM in assay [6] (Homo sapiens, U-937, 72 h). For the same compound, the GI50 was 53 nM in assay [7] (Homo sapiens, NCI-H1975, 72 h); 75 nM in [8] (Homo sapiens, 72 h); 30 nM in assay [9] (Homo sapiens, DU-145, 72 h); 60 nM in [10] (Homo sapiens, HT-1080, 72 h); 81 nM in [11] (Homo sapiens, KBM5, 72 h). Also, the IC50 in [12] and in [13] (setting [14]) was 38 nM in each case.
Regarding `C/C=C1\NC(=O)c2cc(SC)cc(n2)CNC(=O)C[C@@H](/C=C/CCSC(=O)CCCCCC)OC(=O)[C@H](C(C)C)NC1=O` [Compound 151], the GI50 in assay [1] (Homo sapiens, K562, 72 h) came out at 67 nM; in [2] (Homo sapiens, HCC827, 72 h), 38 nM; in assay [3] (setting [15]), 40 nM; in [4] (Homo sapiens, Bel-7402, 72 h), 26 nM; in assay [5] (setting [16]) it was 70 nM; in assay [6] (setting [17]) it was 40 nM. Further, the GI50 in assay [7] (Homo sapiens, NCI-H1975, 72 h) is 58 nM; in [8] (Homo sapiens, 72 h), 46 nM; in assay [9] (setting [18]), 40 nM; in assay [10] (setting [19]) it was 90 nM; in [11] (Homo sapiens, KBM5, 72 h) it was 31 nM. The half-inhibitory concentration (IC50) was 38 nM in assay [12] and 23 nM in [13].
`C/C=C1\NC(=O)c2ncc(SC)c(n2)CNC(=O)C[C@@H](/C=C/CCSC(C)=O)OC(=O)[C@H](C(C)C)NC1=O` [Compound 217]: the GI50 in assay [1] worked out at 62 nM; in [2], 29 nM; in assay [3] (BGC-823 cells), 30 nM; in [4] it was 37 nM; in assay [5] (Hela cells), 10 nM; in assay [6] (U937 cells), 90 nM. Besides, the GI50 was determined as 43 nM in assay [7]; 57 nM in [8]; 20 nM in [9] (DU145 cells); 20 nM in assay [10] (HT1080 cells); 41 nM in assay [11]. Moreover, the IC50 in assay [12] was determined as 78 nM; in assay [13] (setting [14]), 122 nM.
`C/C=C1\NC(=O)c2cc(F)cc(n2)CNC(=O)C[C@@H](/C=C/CCSC(=O)CCCC)OC(=O)[C@H](C(C)C)NC1=O` [Compound 40]: the concentration for 50% growth inhibition (GI50) in [1] (Homo sapiens, K562, 72 h) came out at 41 nM; in assay [2] (Homo sapiens, HCC827, 72 h) it was 74 nM; in [3] (Homo sapiens, BGC-823, 72 h), 70 nM; in assay [4] (Homo sapiens, Bel-7402, 72 h) it was 74 nM; in assay [5] (Homo sapiens, HeLa, 72 h), 70 nM; in [6] (Homo sapiens, U-937, 72 h), 40 nM. Also, the GI50 was 43 nM in [7] (Homo sapiens, NCI-H1975, 72 h); 71 nM in assay [8] (Homo sapiens, 72 h); 40 nM in [9] (Homo sapiens, DU-145, 72 h); 70 nM in assay [10] (Homo sapiens, HT-1080, 72 h); 79 nM in assay [11] (Homo sapiens, KBM5, 72 h). The values for the IC50 in [12] and in [13] (setting [14]) were 45 nM and 42 nM, respectively.
Take `C/C=C1\NC(=O)c2ccc(SC)c(n2)CNC(=O)C[C@@H](/C=C/CCSC(=O)CCCCCCC)OC(=O)[C@H](Cc2ccccc2)NC1=O` [Compound 191]: the GI50 is 41 nM in [1] (Homo sapiens, K562, 72 h); 49 nM in assay [2] (Homo sapiens, HCC827, 72 h); 100 nM in assay [3] (setting [15]); 51 nM in assay [4] (Homo sapiens, Bel-7402, 72 h); 130 nM in assay [5] (setting [16]); 30 nM in [6] (setting [17]). Also, the GI50 in assay [7] (Homo sapiens, NCI-H1975, 72 h) was 32 nM; in [8] (Homo sapiens, 72 h), 11 nM; in assay [9] (setting [18]), 40 nM; in [10] (setting [19]) it was 50 nM; in assay [11] (Homo sapiens, KBM5, 72 h), 36 nM. Moreover, the IC50 in assay [12] was found to be 18 nM; in assay [13], 62 nM.
Regarding `C=C1NC(=O)c2cc(SC)cc(n2)CNC(=O)C[C@@H](/C=C/CCSC(C)=O)OC(=O)[C@H](C(C)C)NC1=O` [Compound 205], the GI50 in assay [1] (Homo sapiens, K562, 72 h) was 53 nM; in [2] (Homo sapiens, HCC827, 72 h) it was 62 nM; in assay [3] (setting [15]) it was 50 nM; in [4] (Homo sapiens, Bel-7402, 72 h), 56 nM; in assay [5] (setting [16]), 70 nM; in assay [6] (setting [17]), 40 nM. Also, the GI50 turned out to be 64 nM in assay [7] (Homo sapiens, NCI-H1975, 72 h); 49 nM in assay [8] (Homo sapiens, 72 h); 60 nM in [9] (setting [18]); 10 nM in assay [10] (setting [19]); 15 nM in assay [11] (Homo sapiens, KBM5, 72 h). The IC50 stood at 62 nM in assay [12] and 38 nM in assay [13].
